2 compounds from paper PMC6150198, “Functional Characterization of a Hydroxyacid/Alcohol Hydroxycinnamoyl Transferase Produced by the Liverwort Marchantia emarginata” (Molecules : A Journal of Synthetic Chemistry and Natural …, 2017) can be followed below.

A word on the Km: it is the concentration of substrate that gives half-maximal velocity.

SMILES strings stand for the structures.

This assay deals with T1, MeHFT.
T1 construct: ~71 kDa on gel), E. coli BL21(DE3), Ni-NTA; primers encode N-terminus MGAEEV and C-terminus EEAIKL; cDNA 1413 nt from transcriptome SRP078649
Briefly: HPLC of alkyl ferulate product, UV […] nm, Michaelis-Menten fit. It is filed as biochemical, Marchantia emarginata. Particulars: 0.1 M Tris-HCl pH 7.5, 40 °C, 10 min.

As for `CCCCCCCCCCO` [1-Decanol], the Michaelis-Menten constant (Km) (acyl acceptor varied, 0.1 mM feruloyl-CoA) is 65.5 ± 11.2 µM. `COc1cc(/C=C/C(=O)SCCNC(=O)CCNC(=O)[C@H](O)C(C)(C)COP(=O)(O)OP(=O)(O)OC[C@H]2O[C@@H](n3cnc4c(N)ncnc43)[C@H](O)[C@@H]2OP(=O)(O)O)ccc1O` [Feruloyl-CoA]: where the note is “acyl donor varied, 0.1 mM 1-decanol”, the Km came to 79.4 ± 10.9 µM.
